How the values were obtained:
[1] = Cytotoxicity against BALB/c mouse splenocytes incubated for 48 hrs by MTT assay; format: toxicity, cell-based, Splenocyte
Splenocyte [2] = assay: Immunosuppressive activity in BALB/c mouse splenocytes assessed as inhibition of LPS-induced B cell proliferation by measuring [3H]-thymidine uptake by beta scintillation counter analysis; format: functional, cell-based
[3] = Selectivity index, ratio of CC50 for cytotoxicity against BALB/c mouse splenocyte to IC50 for immunosuppressive activity in BALB/c mouse splenocytes assessed as inhibition of ConA-induced T cell proliferation; format: cell-based; conditions: read-out: Ratio CC50/IC50
Splenocyte [4] = assay: Immunosuppressive activity in BALB/c mouse splenocytes assessed as inhibition of ConA-induced T cell proliferation by measuring [3H]-thymidine uptake by beta scintillation counter analysis; format: functional, cell-based
[5] = Selectivity index, ratio of CC50 for cytotoxicity against BALB/c mouse splenocyte to IC50 for immunosuppressive activity in BALB/c mouse splenocytes assessed as inhibition of LPS-induced B cell proliferation; format: cell-based; conditions: read-out: Ratio CC50/IC50

| SMILES | CC50 at 48 h [1] [µM] | IC50 (Splenocyte [2]) [µM] | selectivity ratio [3] | IC50 (Splenocyte [4]) [µM] | selectivity ratio [5] |
| --- | --- | --- | --- | --- | --- |
| OC[C@H](Cc1ccc2c(c1)OCO2)[C@](O)(CO)Cc1cc2c(cc1O)OCO2 | 99.3 | 18.2 | 3.6 | 27.3 |  |
| COc1cc2c(cc1O)O[C@H]1OC[C@H](Cc3cc4c(cc3O)OCO4)[C@H]1C2 | 82.5 | 12.1 | 5.6 | 14.8 | 6.8 |
| O=C(Cc1ccc2c(c1)OCO2)[C@H](CO)Cc1ccc2c(c1)OCO2 | 68 | 3.9 | 3.8 | 18 | 17.5 |
| COc1cc(C[C@H]2CO[C@@H]3Oc4cc5c(cc4C[C@H]23)OCO5)ccc1O | 40.1 | 2.7 | 4 | 10.1 | 14.9 |
| OC[C@H](Cc1cc2c(cc1O)OCO2)[C@](O)(CO)Cc1cc2c(cc1O)OCO2 | 108 | 26.7 | 1.9 | 56.2 | 4.1 |
| Oc1cc2c(cc1C[C@H]1CO[C@@H]3Oc4cc5c(cc4C[C@H]13)OCO5)OCO2 | 90.3 | 32.8 | 1.7 | 51.7 | 2.8 |
